Measured values published in patent publication US8796276B2, “Heterocyclic compounds for the treatment of neurological and psychological disorders” (Alkermes Pharma Ireland Limited, priority 2009, dated 2014).

How the values were obtained:
[1] = test system: D-Amphetamine-induced locomotion; experiment: Pharmacodynamic study in amphetamine-induced locomotion model; conditions: D-AMPH 1.5 mg/kg IP
[2] = Pharmacokinetic evaluation of prodrugs in rats following intramuscular injection; format: in vivo, Male Sprague-Dawley rats; conditions: rat, IM injection, plasma drug concentration; dose (mg/kg) and excipients/formulation differ per table line
Experimental: Pharmakokinetic Evaluation of Prodrugs in Rats Following Intramuscular Injection
Male Sprague-Dawley rats (Charles River Laboratories, Wilmington, Mass.) were obtained. Approximately 24 rats were used in each study. Rats were approximately 350-375 g at time of arrival. Rats were housed 2 per cage with ad libitum chow and water. Environmental conditions in the housing room: 64-67° F., 30% to 70% relative humidity, and 12:12-h light:dark cycle. All experiments were approved by the institutional animal care and use committee.
Rats were dosed IM by means of a 25 gauge, ⅝ in. needle with 1 cc syringe 0.3 mL suspension was withdrawn from the vial containing the test compound (see Table E). The […] was injected in the muscles of the hind limb after anesthesia with isoflourane. Blood samples were collected via a lateral tail vein after brief anesthesia with Isoflurane. A 27½ G needle and 1 cc syringe without an anticoagulant was used for the blood collection. Approximately […] of whole blood was collected at each sampling time-point of 6 hours, 24 hours and 2, 5, 7, 9, 12, 14, 21, 28, 35 days after administration. Once collected, whole blood was immediately transferred to tubes containing K2 EDTA, inverted 10-15 times and immediately placed on ice. The tubes were centrifuged for 2 minutes at >14,000 g's (11500 RPMs using Eppendorf Centrifuge 5417C, F45-30-11 rotor) at room temperature to separate plasma. Plasma samples were transferred to labeled plain tubes (MICROTAINER®; MFG# BD5962) and stored frozen at <−70° C.
Drug concentrations in plasma samples were analyzed by liquid chromatography-mass spectroscopy using appropriate parameters for each compound. Half-life, volume of distribution, clearance, maximal concentration, and AUC were calculated by using WinNonlin Version 5.2 software.

[3] = PO oral oil solution, at the higher dose of 20 mg
[4] = PO oral oil solution, 0.66, 10 and 20 mg/rat

SMILES	inhibition of increases in distance traveled caused by D-AMPH [1, 3]	AUC0-T [2]	further results
CNC(=O)OCN1C(=O)CCc2ccc(OCCCCN3CCN(c4cccc(Cl)c4Cl)CC3)cc21 [Compound 47, (7-(4-(4-(2,3-dichlorophenyl)piperazin-1-yl)butoxy)-2-oxo-3,4-dihydroquinolin-1(2H)-yl)methyl methylcarbamate]	significantly inhibit	–	–
CCCCCCCCCCCCCC(=O)OCN1C(=O)CCc2ccc(OCCCCN3CCN(c4cccc(Cl)c4Cl)CC3)cc21 [Compound 8, (7-(4-(4-(2,3-dichlorophenyl)piperazin-1-yl)butoxy)-2-oxo-3,4-dihydroquinolin-1(2H)-yl)methyl tetradecanoate]	–	666.1 ng·days/mL	AUC0-14 [2]: 580.3 ng·days/mL
CCCCCCCCCCCC(=O)OCN1C(=O)CCc2ccc(OCCCCN3CCN(c4cccc(Cl)c4Cl)CC3)cc21 [Compound 7, (7-(4-(4-(2,3-dichlorophenyl)piperazin-1-yl)butoxy)-2-oxo-3,4-dihydroquinolin-1(2H)-yl)methyl dodecanoate]	significantly inhibit	–	–
CCCCCC(=O)OCN1C(=O)CCc2ccc(OCCCCN3CCN(c4cccc(Cl)c4Cl)CC3)cc21 [Compound 4, (7-(4-(4-(2,3-dichlorophenyl)piperazin-1-yl)butoxy)-2-oxo-3,4-dihydroquinolin-1(2H)-yl)methyl hexanoate]	–	–	dose dependence of inhibition of distance travelled [1, 4]: did not appear to be dose dependent; inhibition of increases in distance traveled caused by D-AMPH [1, 4]: significantly inhibited
CCOC(=O)OCN1C(=O)CCc2ccc(OCCCCN3CCN(c4cccc(Cl)c4Cl)CC3)cc21 [Compound 79, (7-(4-(4-(2,3-dichlorophenyl)piperazin-1-yl)butoxy)-2-oxo-3,4-dihydroquinolin-1(2H)-yl)methyl ethyl carbonate]	–	940 ng·days/mL	–
